# Earlier results in US20260335282A1, “NOVEL 3-ARYLIDENE-2-INDOLINONE DERIVATIVES FOR THERAPEUTIC USE” (ISTANBUL UNIVERSITESI REKTORLUGU, priority 2022, published 2026).
# What was measured:
# HT-29 and MKN-45 cells = conditions: Wang et al. 2021; cited from earlier work
# angiogenesis = conditions: transgenic zebrafish, Wang et al. 2021; cited from earlier work
# VEGFR-2 = conditions: Wang et al. 2021; cited from earlier work
# HUVEC cell line = conditions: Wang et al. 2021; cited from earlier work
smiles,measurement,setting,value
Cc1ccc(-n2cc(-c3ccc(/C=C4\C(=O)Nc5ccccc54)cc3)nn2)cc1 [III],cytotoxicity vs sunitinib,HT-29 and MKN-45 cells,better cytotoxicity on HT-29 and MKN-45 cells
same,inhibitory effect on angiogenesis,angiogenesis,confirmed in vivo
same,inhibitory activity on VEGFR-2 vs sunitinib,VEGFR-2,greater inhibitory activity on VEGFR-2
same,toxicity to HUVEC vs sunitinib,HUVEC cell line,less toxic to HUVEC cell line than sunitinib
